In paper PMC5468247, “Development of a selective agonist for relaxin family peptide receptor 3” (Scientific Reports, 2017):

What was measured:
human RXFP4 [1] = target: T1, human RXFP4 (Homo sapiens, UniProt Q8TDU9); experiment: Receptor binding assay, NanoLuc-conjugated R3/I5 tracer competition; conditions: compared with R3/I5
T1 construct: expressed in transfected cells; host or cells: HEK293T
Method: (§1) Specific binding data are expressed as means ± SE (n = 3) and fitted to sigmoidal curves using SigmaPlot 10.0 software.
(§2) Briefly, HEK293T cells were transiently transfected with an expression construct of human RXFP3 or human RXFP4. On the next day, transfected cells were trypsinised, seeded into 96-well plates, and continuously cultured for 24–36 h to ~100% confluence. […] After incubation at 21 °C for 2 h, binding solution was removed and cells were washed twice with ice-cold phosphate-buffered saline (200 μl/well for each wash). Thereafter, cells were lysed by lysis solution (100 μl/well, Promega, Madison, WI, USA) and cell lysates were transferred to a white opaque 96-well plate (50 μl/well). After mixing with freshly diluted substrate (50 μl/well), bioluminescence was immediately measured on a SpectraMax M5 plate reader (Molecular Devices, Sunnyvale, CA, USA) in luminescence mode. […] The calculated specific binding data were expressed as means ± standard error (SE; n = 3) and fitted to sigmoidal curves using SigmaPlot 10.0 software.

human RXFP3 [2] = target: T2, human RXFP3 (Homo sapiens, UniProt Q9NSD7); experiment: as above; conditions: for binding potency towards RXFP3, in words: compared with R3/I5
T2 construct: expressed in transfected cells; host or cells: HEK293T
T2 sequence (Q9NSD7 1-469): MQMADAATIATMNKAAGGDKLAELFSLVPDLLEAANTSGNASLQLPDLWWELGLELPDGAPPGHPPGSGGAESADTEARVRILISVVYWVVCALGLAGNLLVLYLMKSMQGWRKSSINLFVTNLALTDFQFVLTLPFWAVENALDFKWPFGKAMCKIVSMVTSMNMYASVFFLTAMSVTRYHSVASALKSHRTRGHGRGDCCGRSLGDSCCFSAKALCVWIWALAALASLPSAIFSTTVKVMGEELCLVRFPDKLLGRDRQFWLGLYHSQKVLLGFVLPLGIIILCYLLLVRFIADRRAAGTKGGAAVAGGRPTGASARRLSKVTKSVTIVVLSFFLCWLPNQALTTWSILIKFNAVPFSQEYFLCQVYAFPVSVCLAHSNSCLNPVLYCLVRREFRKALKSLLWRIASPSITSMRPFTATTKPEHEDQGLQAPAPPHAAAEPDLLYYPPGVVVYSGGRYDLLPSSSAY
Method: as §1, §2

human RXFP4 [3] = target: T1, human RXFP4; experiment: Receptor activation assay, CRE-controlled NanoLuc reporter; format: cell-based; conditions: relative to R3/I5
Excerpt: (§3) HEK293T cells transiently cotransfected with a CRE-controlled NanoLuc reporter vector and the expression construct of human RXFP3 or human RXFP4 were used for activation assays. The measured bioluminescence data are expressed as means ± SE (n = 3) and fitted to sigmoidal or linear curves using SigmaPlot 10.0.
(§4) Briefly, HEK293T cells were transiently cotransfected with the NanoLuc reporter vector pNL1.2/CRE and the expression construct of human RXFP3 or human RXFP4. On the next day, transfected cells were trypsinised, seeded into 96-well plates, and continuously cultured for 24–36 h to ~90% confluence. To initiate activation assays, medium was removed and activation solution (serum-free DMEM medium plus 1% bovine serum albumin) containing 1.0 μM of forskolin and various concentrations of peptide was added (100 μl/well). After continuous culturing at 37 °C for 4 h, activation solution was removed and cells were lysed with lysis solution (100 μl/well, Promega). Cell lysates were then transferred to a white opaque 96-well plate (50 μl/well), mixed with freshly diluted substrate (50 μl/well), and bioluminescence was immediately measured on a SpectraMax M5 plate reader (Molecular Devices) in luminescence mode. The measured data were expressed as means ± SE (n = 3) and fitted to sigmoidal or linear curves using SigmaPlot 10.0 software.

human RXFP3 [4] = target: T2, human RXFP3; experiment: as above; format: cell-based; conditions: for fold lower activation potency towards RXFP3 compared with R3/I5: relative to R3/I5; for fold higher activation potency towards RXFP3 than towards RXFP4: selectivity RXFP3 over RXFP4, from activation assays
Excerpt: as §3, §4

[5] = CRE-NanoLuc reporter, human RXFP3

T1 sequence (Q8TDU9 whole entry): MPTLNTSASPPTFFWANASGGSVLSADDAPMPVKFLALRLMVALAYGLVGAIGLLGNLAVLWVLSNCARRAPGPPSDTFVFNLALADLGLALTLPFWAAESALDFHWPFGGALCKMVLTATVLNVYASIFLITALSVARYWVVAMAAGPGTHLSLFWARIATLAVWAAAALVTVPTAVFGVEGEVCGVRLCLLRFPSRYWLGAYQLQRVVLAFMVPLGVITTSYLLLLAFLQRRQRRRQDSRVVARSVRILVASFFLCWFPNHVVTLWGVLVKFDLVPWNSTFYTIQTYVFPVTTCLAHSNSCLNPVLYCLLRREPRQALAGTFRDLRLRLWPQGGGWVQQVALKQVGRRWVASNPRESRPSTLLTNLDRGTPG

Row | Structure (SMILES) | binding potency towards RXFP4, in words (human RXFP4 [1]) | binding potency towards RXFP3, in words (human RXFP3 [2]) | fold lower activation potency towards RXFP4 compared with R3/I5 (human RXFP4 [3]) | fold lower activation potency towards RXFP3 compared with R3/I5 (human RXFP3 [4]; [5]) | activation potency towards RXFP3, in words (human RXFP3 [4]; CRE-NanoLuc reporter, human RXFP3, compared with R3/I5) | fold higher activation potency towards RXFP3 than towards RXFP4 (human RXFP3 [4]) | fold lower binding potency for RXFP3 compared with R3/I5 (human RXFP3 [2]; relative to R3/I5)
1 | CC[C@H](C)[C@@H]1NC(=O)[C@H](Cc2ccccc2)NC(=O)[C@H](CCC(=O)O)NC(=O)[C@H](CCCNC(=N)N)NC(=O)CNC(=O)[C@@H](NC(=O)[C@H](CC(C)C)NC(=O)[C@H](CCCNC(=N)N)NC(=O)[C@@H](NC(=O)CNC(=O)[C@H](Cc2ccc(O)cc2)NC(=O)[C@@H]2CCCN2C(=O)[C@H](C)NC(=O)[C@H](C)NC(=O)[C@H](CCCNC(=N)N)NC(=O)[C@@H]2CCC(=O)N2)C(C)C)CSSC[C@@H]2NC(=O)[C@@H](NC(=O)[C@H](CC(C)C)NC(=O)[C@@H](NC(=O)[C@H](CCC(N)=O)NC(=O)[C@H](CC(C)C)NC(=O)[C@H](CC(=O)O)NC(=O)[C@H](CCC(N)=O)NC(=O)[C@H](CCCNC(=N)N)NC(=O)[C@H](CO)NC(=O)[C@H](CCCNC(=N)N)NC(=O)[C@H](CCCNC(=N)N)NC(=O)[C@H](CO)NC(=O)[C@@H](N)CCCNC(=N)N)[C@@H](C)O)CSSC[C@H](NC(=O)CNC(=O)[C@H](CC(=O)O)NC(=O)[C@H]([C@@H](C)O)NC2=O)C(=O)N[C@@H](CO)C(=O)N[C@@H](CCSC)C(=O)N[C@@H]([C@@H](C)O)C(=O)N[C@@H](CC(=O)O)C(=O)N[C@@H](CC(C)C)C(=O)N[C@@H](CO)C(=O)N[C@@H](C)C(=O)N[C@@H](CC(C)C)C(=O)N[C@H](C(=O)O)CSSC[C@@H](C(=O)NCC(=O)NCC(=O)NCC(=O)N[C@@H](CO)C(=O)N[C@@H](CCCNC(=N)N)C(=O)N[C@@H](Cc2c[nH]c3ccccc23)C(=O)O)NC(=O)[C@H]([C@@H](C)O)NC(=O)[C@H](Cc2ccccc2)NC(=O)[C@H]([C@@H](C)CC)NC(=O)[C@H](C(C)C)NC(=O)[C@H](C)NC(=O)[C@H](CCCNC(=N)N)NC1=O [[+G(B23-24)]R3/I5] | comparable with R3/I5 | comparable with R3/I5 | ~ 100 fold | ~ 100 fold | – | – | –
2 | CC[C@H](C)[C@@H]1NC(=O)[C@H](Cc2ccccc2)NC(=O)[C@H](CCC(=O)O)NC(=O)[C@H](CCCNC(=N)N)NC(=O)CNC(=O)[C@@H](NC(=O)[C@H](CC(C)C)NC(=O)[C@H](CCCNC(=N)N)NC(=O)[C@@H](NC(=O)CNC(=O)[C@H](Cc2ccc(O)cc2)NC(=O)[C@@H]2CCCN2C(=O)[C@H](C)NC(=O)[C@H](C)NC(=O)[C@H](CCCNC(=N)N)NC(=O)[C@@H]2CCC(=O)N2)C(C)C)CSSC[C@@H]2NC(=O)[C@@H](NC(=O)[C@H](CC(C)C)NC(=O)[C@@H](NC(=O)[C@H](CCC(N)=O)NC(=O)[C@H](CC(C)C)NC(=O)[C@H](CC(=O)O)NC(=O)[C@H](CCC(N)=O)NC(=O)[C@H](CCCNC(=N)N)NC(=O)[C@H](CO)NC(=O)[C@H](CCCNC(=N)N)NC(=O)[C@H](CCCNC(=N)N)NC(=O)[C@H](CO)NC(=O)[C@@H](N)CCCNC(=N)N)[C@@H](C)O)CSSC[C@H](NC(=O)CNC(=O)[C@H](CC(=O)O)NC(=O)[C@H]([C@@H](C)O)NC2=O)C(=O)N[C@@H](CO)C(=O)N[C@@H](CCSC)C(=O)N[C@@H]([C@@H](C)O)C(=O)N[C@@H](CC(=O)O)C(=O)N[C@@H](CC(C)C)C(=O)N[C@@H](CO)C(=O)N[C@@H](C)C(=O)N[C@@H](CC(C)C)C(=O)N[C@H](C(=O)O)CSSC[C@@H](C(=O)N[C@@H](C)C(=O)NCC(=O)N[C@@H](CO)C(=O)N[C@@H](CCCNC(=N)N)C(=O)N[C@@H](Cc2c[nH]c3ccccc23)C(=O)O)NC(=O)[C@H]([C@@H](C)O)NC(=O)[C@H](Cc2ccccc2)NC(=O)[C@H]([C@@H](C)CC)NC(=O)[C@H](C(C)C)NC(=O)[C@H](C)NC(=O)[C@H](CCCNC(=N)N)NC1=O [[G(B23)A]R3/I5] | retained high binding potency | retained considerable binding potency | ~ 100 fold | – | lost all activation potency | – | –
3 | CC[C@H](C)[C@@H]1NC(=O)[C@H](Cc2ccccc2)NC(=O)[C@H](CCC(=O)O)NC(=O)[C@H](CCCNC(=N)N)NC(=O)CNC(=O)[C@@H](NC(=O)[C@H](CC(C)C)NC(=O)[C@H](CCCNC(=N)N)NC(=O)[C@@H](NC(=O)CNC(=O)[C@H](Cc2ccc(O)cc2)NC(=O)[C@@H]2CCCN2C(=O)[C@H](C)NC(=O)[C@H](C)NC(=O)[C@H](CCCNC(=N)N)NC(=O)[C@@H]2CCC(=O)N2)C(C)C)CSSC[C@@H]2NC(=O)[C@@H](NC(=O)[C@H](CC(C)C)NC(=O)[C@@H](NC(=O)[C@H](CCC(N)=O)NC(=O)[C@H](CC(C)C)NC(=O)[C@H](CC(=O)O)NC(=O)[C@H](CCC(N)=O)NC(=O)[C@H](CCCNC(=N)N)NC(=O)[C@H](CO)NC(=O)[C@H](CCCNC(=N)N)NC(=O)[C@H](CCCNC(=N)N)NC(=O)[C@H](CO)NC(=O)[C@@H](N)CCCNC(=N)N)[C@@H](C)O)CSSC[C@H](NC(=O)CNC(=O)[C@H](CC(=O)O)NC(=O)[C@H]([C@@H](C)O)NC2=O)C(=O)N[C@@H](CO)C(=O)N[C@@H](CCSC)C(=O)N[C@@H]([C@@H](C)O)C(=O)N[C@@H](CC(=O)O)C(=O)N[C@@H](CC(C)C)C(=O)N[C@@H](CO)C(=O)N[C@@H](C)C(=O)N[C@@H](CC(C)C)C(=O)N[C@H](C(=O)O)CSSC[C@@H](C(=O)NCC(=O)N[C@H](C(=O)N[C@@H](CO)C(=O)N[C@@H](CCCNC(=N)N)C(=O)N[C@@H](Cc2c[nH]c3ccccc23)C(=O)O)[C@@H](C)O)NC(=O)[C@H]([C@@H](C)O)NC(=O)[C@H](Cc2ccccc2)NC(=O)[C@H]([C@@H](C)CC)NC(=O)[C@H](C(C)C)NC(=O)[C@H](C)NC(=O)[C@H](CCCNC(=N)N)NC1=O [[G(B24)T]R3/I5] | – | – | – | ~ 20 fold | – | ~ 2 fold | –
4 | CC[C@H](C)[C@@H]1NC(=O)[C@H](Cc2ccccc2)NC(=O)[C@H](CCC(=O)O)NC(=O)[C@H](CCCNC(=N)N)NC(=O)CNC(=O)[C@@H](NC(=O)[C@H](CC(C)C)NC(=O)[C@H](CCCNC(=N)N)NC(=O)[C@@H](NC(=O)CNC(=O)[C@H](Cc2ccc(O)cc2)NC(=O)[C@@H]2CCCN2C(=O)[C@H](C)NC(=O)[C@H](C)NC(=O)[C@H](CCCNC(=N)N)NC(=O)[C@@H]2CCC(=O)N2)C(C)C)CSSC[C@@H]2NC(=O)[C@@H](NC(=O)[C@H](CC(C)C)NC(=O)[C@@H](NC(=O)[C@H](CCC(N)=O)NC(=O)[C@H](CC(C)C)NC(=O)[C@H](CC(=O)O)NC(=O)[C@H](CCC(N)=O)NC(=O)[C@H](CCCNC(=N)N)NC(=O)[C@H](CO)NC(=O)[C@H](CCCNC(=N)N)NC(=O)[C@H](CCCNC(=N)N)NC(=O)[C@H](CO)NC(=O)[C@@H](N)CCCNC(=N)N)[C@@H](C)O)CSSC[C@H](NC(=O)CNC(=O)[C@H](CC(=O)O)NC(=O)[C@H]([C@@H](C)O)NC2=O)C(=O)N[C@@H](CO)C(=O)N[C@@H](CCSC)C(=O)N[C@@H]([C@@H](C)O)C(=O)N[C@@H](CC(=O)O)C(=O)N[C@@H](CC(C)C)C(=O)N[C@@H](CO)C(=O)N[C@@H](C)C(=O)N[C@@H](CC(C)C)C(=O)N[C@H](C(=O)O)CSSC[C@@H](C(=O)NCC(=O)N[C@H](C(=O)N[C@@H](CO)C(=O)N[C@@H](CCCNC(=N)N)C(=O)N[C@@H](Cc2c[nH]c3ccccc23)C(=O)O)C(C)C)NC(=O)[C@H]([C@@H](C)O)NC(=O)[C@H](Cc2ccccc2)NC(=O)[C@H]([C@@H](C)CC)NC(=O)[C@H](C(C)C)NC(=O)[C@H](C)NC(=O)[C@H](CCCNC(=N)N)NC1=O [[G(B24)V]R3/I5] | – | – | – | ~ 10 fold | – | ~ 10 fold | ~ 5 fold
